According to the Bradley open melting point set (2014):

| SMILES | melting point |
| --- | --- |
| CCOC(=O)c1cc(C)n(-c2ccc(C)cc2)c1C [OSM-S-30] | 61 °C |
| CC(=O)N(C1=NC(=O)/C(=C/c2cc(C)n(-c3ccc(C(F)(F)F)cc3)c2C)S1)c1ccccc1 [OSM-S-45] | 310 °C |
| Cc1cc(/C=C2\SC(=Nc3ccccc3)N=C2O)c(C)n1-c1ccccn1 [OSM-S-51] | 277 °C |
| Cc1cc(/C=C2\S/C(=N\c3ccccc3)N(C3CCCC3)C2=O)c(C)n1-c1ccc(C(F)(F)F)cc1 [OSM-S-54] | 71.5 °C |
| OC1=NC(=Nc2ccccc2)S/C1=C\c1ccccc1 [OSM-S-55] | 260 °C |
| C[C@@H]1O[C@@H](O[C@H]2C[C@@H](O)[C@]3(CO)[C@H]4[C@H](O)C[C@]5(C)[C@@H](C6=CC(=O)OC6)CC[C@]5(O)[C@@H]4CC[C@]3(O)C2)[C@H](O)[C@H](O)[C@H]1O [Ouabain] | 200 °C |
| Clc1ccc(-c2ccccc2)cc1 [PCB-3] | 78 °C |
| Clc1ccc(-c2ccccc2Cl)cc1 [PCB-8] | 44 °C |
| Clc1ccc(-c2ccc(Cl)cc2)cc1 [PCB-15] | 149 °C |
| Clc1ccc(-c2ccc(Cl)cc2Cl)cc1 [PCB-28] | 58 °C |
| Clc1ccc(Cl)c(-c2cc(Cl)c(Cl)cc2Cl)c1 [PCB-101] | 77 °C |
| Clc1ccc(-c2ccc(Cl)c(Cl)c2Cl)cc1Cl [PCB-105] | 117 °C |
| Clc1cc(Cl)c(-c2ccc(Cl)c(Cl)c2Cl)cc1Cl [PCB-138] | 79 °C |
| CCCCCCCCCCCCCCCC(=O)O [Palmitic acid] | 62.5 °C |
| Oc1c(Br)c(Br)c(Br)c(Br)c1Br [Pentabromophenol] | 230 °C |
| Clc1cc(Cl)c(Cl)c(Cl)c1Cl [Pentachlorobenzene] | 85 °C |
| Cc1c(C)c(C)c(C=O)c(C)c1C [Pentamethylbenzaldehyde] | 133 °C |
| CCCCCO [Pentan-1-ol] | -78 °C |
| [O-][Cl+3]([O-])([O-])O [Perchloric acid] | -17 °C |
| ClC(Cl)=C/C3C(C(=O)OCc2cccc(Oc1ccccc1)c2)C3(C)C (stereo unspecified) [Permethrin] | 34 °C |
| c1cc2cccc3c4cccc5cccc(c(c1)c23)c54 [Perylene] [listing 1 of 2 here] | 278 °C |
| c1cc2cccc3c4cccc5cccc(c(c1)c23)c54 [Perylene] [listing 2 of 2 here] | 278 °C |
| c1ccc2c(c1)ccc1ccccc12 [Phenanthrene] | 101 °C |
| O=C1OC(c2ccc(O)cc2)(c2ccc(O)cc2)c2ccccc21 [Phenolphthalein] | 262 °C |

| SMILES | melting point |
| --- | --- |
| c1ccc2c(c1)Nc1ccccc1S2 [Phenothazine] | 187 °C |
| c1ccc2c(c1)Oc1ccccc1S2 [Phenoxathiine] | 59.5 °C |
| CCCCC1C(=O)N(c2ccccc2)N(c2ccccc2)C1=O [Phenylbutazone] | 105 °C |
| O=Cc1ccccc1C=O [Phthalaldehyde] | 56 °C |
| O=C(O)CCCCCC(=O)O [Pimelic Acid] | 106 °C |
| N#Cc1ccc2c(c1)OCO2 [Piperonylonitrile] | 94 °C |
| COc1cc2nc(N3CCN(C(=O)c4ccco4)CC3)nc(N)c2cc1OC [Prazosin] | 279 °C |
| C[C@]12C=CC(=O)C=C1CC[C@@H]1[C@@H]2[C@@H](O)C[C@@]2(C)[C@H]1CC[C@]2(O)C(=O)CO [Prednisolone] | 240 °C |
| CCCN(CC1CC1)c1c([N+](=O)[O-])cc(C(F)(F)F)cc1[N+](=O)[O-] [Profluralin] | 32 °C |
| CC(=O)[C@H]1CC[C@H]2[C@@H]3CCC4=CC(=O)CC[C@]4(C)[C@H]3CC[C@]12C [Progesterone] | 130 °C |
| CCCOC(=O)c1ccc(O)cc1 [Propyl 4-hydroxybenzoate] | 96 °C |
| CN[C@@H](C)[C@@H](O)c1ccccc1 [Pseudoephedrine] | 118 °C |
| NC(=O)c1cnccn1 [Pyrazinamide] | 189 °C |
| c1cnccn1 [Pyrazine] | 55 °C |
| Sc1ccccn1 [Pyridine-2-thiol] | 129 °C |
| c1ccncc1 [Pyridine] | -42 °C |
| O=C(O)c1cc(C(=O)O)c(C(=O)O)cc1C(=O)O [Pyromellitic Acid] | 276 °C |
| C1CCNC1 [Pyrrolidine] | -60 °C |
| C=C[C@H]1CN2CC[C@H]1C[C@@H]2[C@@H](O)c1ccnc2ccc(OC)cc12 [Quinidine] | 174 °C |
| CC=1CCC[C@](C)(C)C=1/C=CC(C)=CC=CC(C)=CC(=O)O [Retinoic acid] | 190 °C |
| C[C@@H]1O[C@H](O)[C@@H](O)[C@H](O)[C@H]1O [Rhamnose] | 122 °C |
| Cc1cc2nc3c(=O)[nH]c(=O)nc-3n(C[C@H](O)[C@H](O)[C@H](O)CO)c2cc1C [Riboflavin] | 280 °C |
| CO[C@H]1C=CO[C@@]2(C)Oc3c(C)c(O)c4c(O)c(c(/C=N/N5CCN(C)CC5)c(O)c4c3C2=O)NC(=O)C(C)=CC=C[C@H](C)[C@H](O)[C@@H](C)[C@H](O)[C@H](C)[C@H](OC(C)=O)[C@@H]1C [Rifampin] | 183 °C |
| O=Cc1ccccc1O [Salicylaldehyde] | 1.5 °C |

| SMILES | melting point |
| --- | --- |
| NC(=O)c1ccccc1O [Salicylamide] | 140 °C |
| O=C(O)c1ccccc1O [Salicylic acid] | 159 °C |
| O=C(O)CCCCCCCCC(=O)O [Sebacic acid] | 134 °C |
| Nc1ccc(S(=O)(=O)Nc2ncccn2)cc1 [Sulfadiazine] | 259 °C |
| Nc1ccc(S(=O)(=O)Nc2ccccn2)cc1 [Sulfapyridine] | 192 °C |
| O=C1C(CCS(=O)c2ccccc2)C(=O)N(c2ccccc2)N1c1ccccc1 (stereo unspecified) [Sulfinpyrazone] | 136 °C |
| CC1=C(CC(=O)O)c2cc(F)ccc2/C1=C\c1ccc([S+](C)[O-])cc1 (stereo unspecified) [Sulindac] | 184 °C |
| CS(=O)c1ccc(cc1)/C=C3c2ccc(F)cc2C(CC(=O)O)=C3C (stereo unspecified) [Sulindac] | 183 °C |
| O[C@@H]1CC[C@H](C[C@H]1OC)/C=C(C)[C@H]2OC(=O)[C@@H]4CCCCN4C(=O)C(=O)[C@]3(O)O[C@H]([C@H](C[C@@H](C)CC(C)=C[C@@H](CC=C)C(=O)C[C@H](O)[C@H]2C)OC)[C@H](C[C@H]3C)OC [Tacrolimus] | 126 °C |
| O=C(O)C(O)C(O)C(=O)O (stereo unspecified) [Tartaric acid] | 210 °C |
| CCNc1nc(NC(C)(C)C)nc(SC)n1 [Terbutryn] | 105 °C |
| O=C5\C=C4/C(C3CCC2(C(CCC2OC(=O)Cc1ccccc1)C3CC4)C)(C)CC5 (stereo unspecified) [Testosterone phenylacetate] | 129 °C |
| C[C@]12CC[C@H]3[C@@H](CCC4=CC(=O)CC[C@@]43C)[C@@H]1CC[C@@H]2OC(=O)CCc1ccccc1 [Testosterone phenylpropanoate] | 116 °C |
| c1ccc2cc3cc4ccccc4cc3cc2c1 [Tetracene] | 350 °C |
| ClC(Cl)(Cl)Cl [Tetrachloromethane] | -23 °C |
| CN(C)[C@@H]1C(O)=C(C(N)=O)C(=O)[C@@]2(O)C(O)=C3C(=O)c4c(O)cccc4[C@@](C)(O)[C@H]3C[C@@H]12 [Tetracycline] | 165 °C |
| C1CCOC1 [Tetrahydrofuran] | -108 °C |
| C1CCOCC1 [Tetrahydropyran] | -45 °C |
| Cc1nc(C)c(C)nc1C [Tetramethylpyrazine] | 85 °C |
| c1ccc2c(c1)Sc1ccccc1S2 [Thianthrene] | 159 °C |
| O=c1c2ccccc2sc2ccccc12 [Thiaxanthone] | 210 °C |
| O=S(Cl)Cl [Thionyl dichloride] | -104 °C |
| Cc1ccc(S(=O)(=O)NC(=O)NN2CCCCCC2)cc1 [Tolazamide] | 172 °C |
| Cc1ccccc1 [Toluene] | -93 °C |

| SMILES | melting point |
| --- | --- |
| N#CC(Cl)(Cl)Cl [Trichloroacetonitrile] | -42 °C |
| O=C(Cl)C(Cl)(Cl)Cl [Trichloroacetyl chloride] | -146 °C |
| COc1cc(Cc2cnc(N)nc2N)cc(OC)c1OC [Trimethoprim] | 201 °C |
| CO[SiH](OC)OC [Trimethoxysilane] | -115 °C |
| O=[O+][O-] [Trioxid-2-en-2-ium-1-ide] | -193 °C |
| c1ccc2c(c1)c1ccccc1c1ccccc21 [Triphenylene] | 197 °C |
| OC(c1ccccc1)(c1ccccc1)c1ccccc1 [Triphenylmethanol] | 163 °C |
| CN1[C@@H]2CC[C@H]1CC(=O)C2 [Tropinone] | 43 °C |
| C/C=C/C(=O)N(CCCCCCC)C(C(=O)NC(C)(C)C)c1cc2ccccc2c2ccccc12 (stereo unspecified) [Ugi product 148B] | 180 °C |
| CCCCCCCCCCCc1ccccc1 [Undecylbenzene] | -5 °C |
| C=C(C)Cn1c(N)cc(=O)n(C)c1=O [Uracil, 6-amino-3-methyl-1- (2-methylallyl)-] | 175 °C |
| O=c1cc[nH]c(=O)[nH]1 [Uracil] | 330 °C |
| O=c1ccn([C@@H]2O[C@@H](CO)[C@H](O)[C@H]2O)c(=O)[nH]1 [Uridine] | 165 °C |
| C=COC(C)=O [Vinyl acetate] | -100 °C |
| CC=1CCCC(C)(C)C=1/C=CC(C)=CC=CC(/C)=CCO [Vitamin A] | 63.5 °C |
| Cc1c(C)c2c(c(C)c1O)CC[C@@](C)(CCC[C@H](C)CCC[C@H](C)CCCC(C)C)O2 [Vitamin E] | 2 °C |
| CC(=O)C=C(C)c1ccc(-c2ccccc2)cc1 [Xenipentone] | 133 °C |
| C/C=C\C#N [Z-crotononitrile] | -72.6 °C |
| Nc1ccn([C@H]2CC[C@@H](CO)O2)c(=O)n1 [Zalcitabine] | 212 °C |
| Cc1cn([C@H]2C[C@H](N=[N+]=[N-])[C@@H](CO)O2)c(=O)[nH]c1=O [Zidovudine] | 109 °C |
| CC(c1cc2ccccc2s1)N(O)C(N)=O (stereo unspecified) [Zileuton] | 145 °C |
| NS(=O)(=O)Cc1noc2ccccc12 [Zonisamide] | 162 °C |
| N#CCS(=O)(=O)c1ccc(C(F)(F)F)cc1 [[4-(trifluoromethyl)phenylsulfonyl]acetonitrile] | 144 °C |
| CC(=O)OC1CCC2C3CCC4CC(CC(=O)O)CCC4(C)C3CCC12C (stereo unspecified) [[17-(acetyloxy)androstan-3-yl]acetic acid] | 152 °C |
